Broadly, the EC50 is the concentration at which the effect is half-maximal. For orientation: IC50 means the midpoint of a concentration-inhibition curve. High values mean weaker potency in that assay, low ones greater potency in that assay.

The source made the active and inactive calls.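 Rule for the calls: active = compounds giving half or more protection of infected cells from virus-caused growth loss, again on retest; inactive = the rest.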

From PubChem BioAssay AID179 (DTP/NCI, 2004) come the findings set out here.

For this experiment, the system named is CEM cells HIV-1 protection, formazan growth assay. Description: NCI AIDS Antiviral Assay. Particulars: for IC50: measured here: growth of uninfected CEM cells. The essentials:
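Human CEM cells, uninfected and HIV-1-infected, exposed to five drug concentrations; growth measured by soluble formazan assay and scored as percent protection from infection, with protecting compounds retested.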

As to `CC(C)(C)OC(=O)C(C1NC2C(=O)OCC2(CO)S1)N1C(=O)c2ccccc2C1=O` (stereo not drawn), the EC50 is above 200 µM and the IC50 is above 200 µM.

For `Nc1ncnc2c1ncn2C1C=CC(COS(N)(=O)=O)C1` (stereo not drawn), the EC50 was above 100 µM and the IC50 amounted to 52.5 µM.

Consider `O=S1(=O)C(c2ccccc2)=C(O)c2cc3ccccc3nc21`, for which the result was inactive.

Turning to `CCOC(=O)C1(Cc2ccc(C)cc2)Cc2ccc(C)cc2C1=O` (stereo not drawn), the EC50 was above 200 µM and the IC50 was 4.68 µM.

With `O=C(Nc1ccccc1)N(CCCCN(Cc1ccccc1)C(=O)Nc1ccccc1)Cc1ccccc1`, the EC50 is above 200 µM and the IC50 was determined as 112 µM.

Turning to `C=CC[N+](CC)(CC)Cc1ccc(C[N+](CC)(CC)CC=C)cc1`, the EC50 is above 513 µM and the IC50 was above 513 µM.

Take `C/C=C1\C=[N+]([O-])C2CC1C(C(=O)OC)C13C[C@@H](OC)OC21Nc1ccccc13` (stereo partly drawn): the outcome was inactive.

For the compound `COc1ccc(C(=O)NO)cc1`, the EC50 is above 200 µM and the IC50 came to 25.1 µM.

Take `CCCc1cc(=O)oc2c3c(cc(OC(C)CC)c12)O[C@H](C)[C@@H](C)C3=O` (stereo partly drawn): the EC50 is above 60.3 µM and the IC50 was 14.1 µM.

With `O=C1C2C=CC1C1C3OC3C(=O)C21` (stereo not drawn), the EC50 is above 708 µM and the IC50 was above 708 µM.

As to `c1ccc2c(c1)Cc1c(Cc3csc4ccccc34)ccc3cccc-2c13`, the EC50 is above 7.24 µM and the IC50 was above 7.24 µM.

For the compound `CCOC(=O)c1c(SCCO)n(-c2ccccc2)c(=S)n(-c2ccccc2)c1=O`, the EC50 was above 200 µM and the IC50 was above 200 µM.

Turning to `CCOC(=O)C1C(=O)c2ccccc2CN1Cc1ccccc1` (stereo not drawn), the result was inactive.

Turning to `O=C1C(CN2CCCC2)CCC1CN1CCCC1` (stereo not drawn), the outcome was inactive.

As to `CN(C)/C=C/c1nnnn1-c1ccc(I)cc1`, the EC50 was above 200 µM and the IC50 worked out at 33.1 µM.

With `CCCCCc1cc(O)c2c3c(c(=O)oc2c1)CP(=O)(c1ccccc1)CC3` (stereo not drawn), the EC50 was above 25.1 µM and the IC50 came to 19.1 µM.

Consider `O=C1OCC(Cc2ccc3c(c2)OCO3)[C@H]1Cc1cccc(O)c1` (stereo partly drawn), for which the EC50 was above 200 µM and the IC50 stood at 79.4 µM.

Consider `O=C(Cc1ccccc1)NNc1nc(NNC(=O)c2ccncc2)nc(Nc2ccccc2)n1`, for which the EC50 is above 200 µM and the IC50 is above 200 µM.

Take `Nc1ccc(C(=O)N/C(=C\c2ccc3c(c2)OCO3)c2nc3ccc4c(c3[nH]2)C(=O)c2ccccc2C4=O)cc1`: the result was inactive.

Take `COC1CC(n2cnc3c(N)ncnc32)OC1CO` (stereo not drawn): the EC50 is above 200 µM and the IC50 is above 200 µM.

On to `O=C(Nc1ccc(-c2ccccc2)oc1=O)c1ccccc1`, for which the EC50 was above 100 µM and the half-inhibitory concentration (IC50) was above 100 µM.

For the compound `COc1ccc(SCc2cc(OC)c(OC)c(OC)c2)cc1OC`, the EC50 is above 200 µM and the IC50 worked out at 45.7 µM.

Take `CC(C)OC1CC(C)(C)c2c(-c3ccccc3)nn(-c3ccccc3)c2O1` (stereo not drawn): the EC50 was above 61.7 µM and the IC50 was 38 µM.

As for `CCC(=O)O[C@@H]1C2C(OC(C)=O)C34COC(C)([C@@H]3C3C(C[C@]3(C)OC(C)=O)[C@@H](OC(=O)c3ccccc3)C4=O)[C@H](OC(C)=O)[C@@]2(OC(C)=O)C[C@@H]1C` (stereo partly drawn), the EC50 is above 10 µM and the IC50 is above 10 µM.

As for `COP(=O)(OC)C(N)Cc1c[nH]c2ccccc12` (stereo not drawn), the EC50 is above 200 µM and the IC50 was above 200 µM.

In the case of `C=C[C@@H]1C(CO)=CCC2[C@H]1CCC1C(C)(C)C(=O)CC[C@]21C` (stereo partly drawn), the EC50 was above 200 µM and the IC50 was above 200 µM.

For the compound `CCOCC1c2ccccc2CCN1Cc1c[nH]c2ccccc12` (stereo not drawn), the EC50 was above 200 µM and the IC50 worked out at 19.5 µM.

In the case of `O=S(=O)(c1ccccc1)N1CC2(CN(S(=O)(=O)c3ccccc3)c3ccccc31)CN(S(=O)(=O)c1ccccc1)c1ccccc1N(S(=O)(=O)c1ccccc1)C2`, the EC50 is above 200 µM and the IC50 is above 200 µM.

In the case of `Cc1csc2c(=O)n(COCc3ccccc3)c(=O)[nH]c12`, the EC50 is above 200 µM and the IC50 was above 200 µM.
